Data: patent publication US20260234147A1 (priority 2023, published 2026)
Where two headings read alike, the source gives them in different places.

Key:
hMOR [1] = target: T1, hMOR (Homo sapiens, UniProt P35372); assay: Radioligand binding assay (Eurofins Cerep), [3H]DAMGO displacement
hKOR = hKOR (Homo sapiens, UniProt P41145); assay: Radioligand binding assay (Eurofins Cerep), [3H]U69,593 displacement
hDOR = hDOR (Homo sapiens, UniProt P41143); assay: Radioligand binding assay (Eurofins Cerep), [3H]DADLE displacement
α2A adrenergic receptor = target: T2, α2A adrenergic receptor (Homo sapiens, UniProt P08913); assay: Radioligand binding assay (Eurofins Cerep), [3H]RX 821002 displacement
T2 construct: Eurofins Cerep (contract screening)
T2 sequence (P08913 1-465): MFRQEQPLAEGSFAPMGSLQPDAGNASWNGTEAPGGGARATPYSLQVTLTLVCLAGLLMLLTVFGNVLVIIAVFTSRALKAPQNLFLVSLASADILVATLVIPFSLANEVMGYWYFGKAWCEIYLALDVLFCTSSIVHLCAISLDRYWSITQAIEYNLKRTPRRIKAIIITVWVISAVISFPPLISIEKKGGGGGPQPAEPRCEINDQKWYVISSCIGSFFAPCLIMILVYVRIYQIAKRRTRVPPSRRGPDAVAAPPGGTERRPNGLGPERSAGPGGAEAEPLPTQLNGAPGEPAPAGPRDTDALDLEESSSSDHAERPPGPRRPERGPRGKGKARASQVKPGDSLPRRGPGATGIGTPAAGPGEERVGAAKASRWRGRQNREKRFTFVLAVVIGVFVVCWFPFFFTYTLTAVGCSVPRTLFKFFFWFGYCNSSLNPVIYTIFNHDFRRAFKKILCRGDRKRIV

α2C adrenergic receptor = target: T3, α2C adrenergic receptor (Homo sapiens, UniProt P18825); assay: as above
T3 construct: Eurofins Cerep (contract screening)
T3 sequence (P18825 1-462): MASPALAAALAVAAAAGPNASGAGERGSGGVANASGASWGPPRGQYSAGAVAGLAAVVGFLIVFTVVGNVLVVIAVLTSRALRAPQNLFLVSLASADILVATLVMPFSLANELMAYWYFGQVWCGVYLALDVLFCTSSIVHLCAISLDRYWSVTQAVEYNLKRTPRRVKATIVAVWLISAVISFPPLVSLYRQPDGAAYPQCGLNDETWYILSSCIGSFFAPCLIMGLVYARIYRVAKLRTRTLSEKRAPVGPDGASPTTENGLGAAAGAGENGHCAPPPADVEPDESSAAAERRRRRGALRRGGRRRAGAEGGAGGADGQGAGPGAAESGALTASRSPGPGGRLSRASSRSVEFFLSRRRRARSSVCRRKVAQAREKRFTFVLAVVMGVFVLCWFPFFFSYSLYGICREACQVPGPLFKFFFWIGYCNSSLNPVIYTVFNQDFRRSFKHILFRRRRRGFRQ

hMOR [2] = target: T1, hMOR; assay: cell-based; design: expressed in transfected cells; conditions: for Emax: CHO
[3] = Metabolic stability in rat liver microsomes; assay type: in vitro ADME; conditions: in vitro intrinsic clearance in RLM scaled to whole organ (rat)
Experimental: In vitro metabolic stability of each compound was determined using rat liver microsomes in triplicate. Verapamil was used as a positive control to check the activity of the microsomes. The incubation mixtures consisted of rat liver microsomes (1 mg microsomal protein/ml), substrate (1 μM), and reduced NADPH (1 mM) in a total volume of 0.4 ml potassium phosphate buffer (50 mM, pH 7.4). Reactions were initiated with the addition of NADPH and kept in an incubator shaker at 37° C. Aliquots of 25 μl were withdrawn at 0, 5, 10, 15, 30, and 60 min and mixed with 125 μl of acetonitrile with formic acid (0.1% v/v) containing phenacetin (50 ng/ml; internal standard) for the termination of the reaction. The samples were then vortex mixed and filtered through a […] 96-well membrane filtration plate under centrifugation at speed of 2000×g for 5 min at 4° C. The filtrates were subjected to UPLC-mass spectrometry (MS/MS) analysis.
The intrinsic clearance of the compounds was calculated using a half-life employing the ‘substrate depletion’ approach. The apparent half-life was calculated from the pseudo-first-order rate constants obtained by linear regression of log (concentration) and time plots. The in vitro intrinsic clearance of IFN was estimated using the formula: […]
Where k is the slope of the line obtained by plotting the natural logarithmic of the percentage of parent remaining versus time and V is the volume of incubation.
The in vitro intrinsic clearance was scaled to whole-organ (hepatic) in vivo intrinsic CL (CLint,H) using the scaling factors available in the literature using equation (Mahmood I. Application of allometric principles for the prediction of pharmacokinetics in human and veterinary drug development. Advanced drug delivery reviews, 2007, 59(11), 1177-1192)
MPPGL represents the microsomal protein per gram of Sprague Dawley rat liver (45 mg/g) and liver weight per kg body weight was 40 g/kg.

hMOR [4] = target: T1, hMOR; assay: Cyclic adenosine 3′,5′-monophosphate (cAMP) assay in hMOR-CHO cells; assay type: cell-based; conditions: N=1, control agonist DAMGO
[5] = Table 3-7, human MOR, read-out: MOR Ki (nM ± SEM)
[6] = Table 3-1, 3 independent experiments, read-out: Ki (nM ± SEM) KOR
[7] = Table 3-1, 3 independent experiments, read-out: Ki (nM ± SEM) DOR
[8] = Table A1, data summary #1, read-out: KOR Ki ± SEM
[9] = Table A4, data summary #2, read-out: KOR Ki ± SEM
[10] = Table B1′, read-out: KOR Ki ± SEM
[11] = Table B1′, read-out: DOR Ki ± SEM
[12] = Table 3-1, 3 independent experiments, read-out: Ki (nM ± SEM) a2A-AR
[13] = Table B1′, read-out: alpha2A Ki ± SEM
[14] = Ki (nM ± SEM) a2C-AR, Table 3-1, 3 independent experiments

Sequence of hDOR (P41143 whole entry): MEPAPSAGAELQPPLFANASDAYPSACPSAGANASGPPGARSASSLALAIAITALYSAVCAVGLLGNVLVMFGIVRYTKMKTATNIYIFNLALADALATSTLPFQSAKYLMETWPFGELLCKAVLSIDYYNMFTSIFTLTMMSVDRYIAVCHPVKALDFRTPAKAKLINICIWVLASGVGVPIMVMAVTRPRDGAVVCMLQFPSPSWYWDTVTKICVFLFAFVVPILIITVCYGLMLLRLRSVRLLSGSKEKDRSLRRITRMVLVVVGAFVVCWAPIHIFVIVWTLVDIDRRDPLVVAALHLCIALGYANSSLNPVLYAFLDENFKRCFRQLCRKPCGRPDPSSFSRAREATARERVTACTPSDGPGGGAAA
T1 sequence (P35372 whole entry): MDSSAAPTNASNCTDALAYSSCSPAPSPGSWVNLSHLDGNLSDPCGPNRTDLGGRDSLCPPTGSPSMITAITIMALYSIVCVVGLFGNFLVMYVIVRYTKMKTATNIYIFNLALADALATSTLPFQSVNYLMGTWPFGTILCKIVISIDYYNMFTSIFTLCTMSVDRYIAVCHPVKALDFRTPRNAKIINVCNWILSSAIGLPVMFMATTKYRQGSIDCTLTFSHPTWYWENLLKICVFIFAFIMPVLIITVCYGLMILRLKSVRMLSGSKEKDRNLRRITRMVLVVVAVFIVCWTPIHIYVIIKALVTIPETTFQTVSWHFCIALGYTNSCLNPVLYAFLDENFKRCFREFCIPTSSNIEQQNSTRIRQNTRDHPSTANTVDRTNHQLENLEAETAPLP
Sequence of hKOR (P41145 whole entry): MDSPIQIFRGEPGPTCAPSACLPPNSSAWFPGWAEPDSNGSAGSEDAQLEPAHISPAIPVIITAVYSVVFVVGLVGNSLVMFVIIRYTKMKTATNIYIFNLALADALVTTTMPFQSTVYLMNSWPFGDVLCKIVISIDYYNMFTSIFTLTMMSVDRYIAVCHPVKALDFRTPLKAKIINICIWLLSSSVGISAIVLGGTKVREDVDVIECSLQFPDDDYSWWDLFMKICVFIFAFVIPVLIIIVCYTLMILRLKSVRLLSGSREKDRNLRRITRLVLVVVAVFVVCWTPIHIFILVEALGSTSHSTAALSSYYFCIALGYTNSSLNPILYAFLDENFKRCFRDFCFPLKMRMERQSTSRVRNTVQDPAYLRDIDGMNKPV

## COC(=O)CC1CCN(CCc2c[nH]c3ccccc23)CC1 [Compound 3-24]
hMOR [1]; Table 3-1
  SR: Selectivity Ratio (KiMOR/Kiα2A): 1.58
hMOR [1]; Table 3-1, 3 independent experiments, read-out: Ki (nM ± SEM) MOR
  Ki: 2230 ± 42.6 nM
hMOR [1]; Table 3-2
  SR: Selectivity Ratio (KiMOR/Kiα2A): 1.58
hMOR [1]; Table 3-2, 3 independent experiments, read-out: Ki (nM ± SEM) MOR
  Ki: 2230 ± 42.6 nM
hMOR [1]; Table 3-3
  SR: Selectivity Ratio (KiMOR/Kiα2A): 1.58
hMOR [1]; Table 3-3, 3 independent experiments, read-out: Ki (nM ± SEM) MOR
  Ki: 2230 ± 42.6 nM
hMOR [1]; Table 3-4
  SR: Selectivity Ratio (KiMOR/Kiα2A): 1.58
hMOR [1]; Table 3-4, 3 independent experiments, read-out: Ki (nM ± SEM) MOR
  Ki: 2230 ± 42.6 nM
hMOR [1]; Table 3-5
  SR: Selectivity Ratio (KiMOR/Kiα2A): 1.58
hMOR [1]; Table 3-5, 3 independent experiments, read-out: Ki (nM ± SEM) MOR
  Ki: 2230 ± 42.6 nM
hMOR [1]; Table 3-6
  SR: Selectivity Ratio (KiMOR/Kiα2A): 1.58
hMOR [1]; Table 3-6, 3 independent experiments, read-out: Ki (nM ± SEM) MOR
  Ki: 2230 ± 42.6 nM
hMOR [1]; [5]
  Ki: 2230 ± 43 nM
hKOR; [6]
  Ki: > 10000 nM
hKOR; Table 3-2, 3 independent experiments, read-out: Ki (nM ± SEM) KOR
  Ki: > 10000 nM
hKOR; Table 3-3, 3 independent experiments, read-out: Ki (nM ± SEM) KOR
  Ki: > 10000 nM
hKOR; Table 3-4, 3 independent experiments, read-out: Ki (nM ± SEM) KOR
  Ki: > 10000 nM
hKOR; Table 3-5, 3 independent experiments, read-out: Ki (nM ± SEM) KOR
  Ki: > 10000 nM
hKOR; Table 3-6, 3 independent experiments, read-out: Ki (nM ± SEM) KOR
  Ki: > 10000 nM
hDOR; [7]
  Ki: > 10000 nM
hDOR; Table 3-2, 3 independent experiments, read-out: Ki (nM ± SEM) DOR
  Ki: > 10000 nM
hDOR; Table 3-3, 3 independent experiments, read-out: Ki (nM ± SEM) DOR
  Ki: > 10000 nM
hDOR; Table 3-4, 3 independent experiments, read-out: Ki (nM ± SEM) DOR
  Ki: > 10000 nM
hDOR; Table 3-5, 3 independent experiments, read-out: Ki (nM ± SEM) DOR
  Ki: > 10000 nM
hDOR; Table 3-6, 3 independent experiments, read-out: Ki (nM ± SEM) DOR
  Ki: > 10000 nM
α2A adrenergic receptor; Ki (nM ± SEM) a2A-AR, Table 3-1, 3 independent experiments
  Ki: 1410 ± 122 nM
α2A adrenergic receptor; Ki (nM ± SEM) a2A-AR, Table 3-2, 3 independent experiments
  Ki: 1410 ± 122 nM
α2A adrenergic receptor; Ki (nM ± SEM) a2A-AR, Table 3-3, 3 independent experiments
  Ki: 1410 ± 122 nM
α2A adrenergic receptor; Ki (nM ± SEM) a2A-AR, Table 3-4, 3 independent experiments
  Ki: 1410 ± 122 nM
α2A adrenergic receptor; Ki (nM ± SEM) a2A-AR, Table 3-6, 3 independent experiments
  Ki: 1410 ± 122 nM
α2A adrenergic receptor; Ki (nM ± SEM) a2A-ar, Table 3-5, 3 independent experiments
  Ki: 1410 ± 122 nM
α2C adrenergic receptor; Ki (nM ± SEM) a2C-AR, Table 3-2, 3 independent experiments
  Ki: > 10000 nM
α2C adrenergic receptor; Ki (nM ± SEM) a2C-AR, Table 3-3, 3 independent experiments
  Ki: > 10000 nM
α2C adrenergic receptor; Ki (nM ± SEM) a2C-AR, Table 3-4, 3 independent experiments
  Ki: > 10000 nM
α2C adrenergic receptor; Ki (nM ± SEM) a2C-AR, Table 3-5, 3 independent experiments
  Ki: > 10000 nM
α2C adrenergic receptor; Ki (nM ± SEM) a2C-AR, Table 3-6, 3 independent experiments
  Ki: > 10000 nM
hMOR [2]
  functional character at MOR: low, but measurable, partial agonist activity
hMOR [2]; read-out: MOR Emax ± SEM (%)
  Emax: 23.8 ± 6.7%
hMOR [2]; read-out: Emax at MOR (FIG. 1)
  Emax: 24%
hMOR [2]; read-out: MOR EC50 ± SEM
  EC50: 1220 nM

## CC[C@@H]1CN2CCc3c([nH]c4cccc(OC)c34)[C@@H]2C[C@@H]1/C(=C\OC)C(=O)OC [Mitragynine, mitragynine, reference compound]
hKOR; [6]
  Ki: 1530 ± 485 nM
hKOR; [8]
  Ki: 1530 nM
hKOR; [9]
  Ki: 264 nM
hKOR; [10]
  Ki: 1530 ± 143 nM
hDOR; [7]
  Ki: 6800 ± 721 nM
hDOR; Table A1, data summary #1, read-out: DOR Ki ± SEM
  Ki: 6800 nM
hDOR; Table A4, data summary #2, read-out: DOR Ki ± SEM
  Ki: 1950 nM
hDOR; [11]
  Ki: 6800 ± 721 nM
α2A adrenergic receptor; [12]
  Ki: 4090 ± 273 nM
α2A adrenergic receptor; Table A1, data summary #1, read-out: Alpha2A Ki ± SEM
  Ki: 4090 nM
α2A adrenergic receptor; Table A4, data summary #2, read-out: Alpha2A Ki ± SEM
  Ki: 1350 nM
α2A adrenergic receptor; Table B1, mean ± SEM, 3 independent experiments, read-out: Alpha2A Ki ± SEM
  Ki: 709 ± 91.2 nM
α2A adrenergic receptor; [13]
  Ki: 4090 ± 273 nM
α2A adrenergic receptor; Table B2, mean ± SEM, 3 independent experiments, read-out: Alpha2A Ki ± SEM
  Ki: 709 ± 91.2 nM
α2C adrenergic receptor; Alpha2C Ki ± SEM (nM), Table A1, data summary #1
  Ki: 4040 nM
α2C adrenergic receptor; Alpha2C Ki ± SEM (nM), Table B2, mean ± SEM, 3 independent experiments
  Ki: 4090 ± 372 nM
α2C adrenergic receptor; [14]
  Ki: 4040 ± 417 nM
[3]
  Whole liver clearance, CL int, H: 35.5 mL/min/kg
hMOR [2]; read-out: MOR Emax ± SEM (% DAMGO), Table A1, data summary #1
  Emax: 3.97%
hMOR [2]; read-out: MOR Emax ± SEM (%)
  Emax: 3.97 ± 9.5%

## CC[C@@H]1CN2CCc3c([nH]c4ccccc34)[C@@H]2C[C@@H]1/C(=C\OC)C(=O)OC [Corynantheidine, reference compound]
hMOR [1]; Table 3-1
  SR: Selectivity Ratio (KiMOR/Kiα2A): 0.97
hMOR [1]; [5]
  Ki: 450 ± 100 nM
hMOR [1]; Table B1′, read-out: MOR Ki ± SEM
  Ki: 2520 ± 372 nM
hKOR; [6]
  Ki: 4060 ± 969 nM
hKOR; [10]
  Ki: 1030 ± 162 nM
hDOR; [7]
  Ki: 2790 ± 171 nM
hDOR; [11]
  Ki: 2410 ± 1200 nM
α2A adrenergic receptor; [12]
  Ki: 351 ± 58.7 nM
α2A adrenergic receptor; [13]
  Ki: 68 ± 12 nM
α2C adrenergic receptor; [14]
  Ki: 135 ± 12.5 nM
hMOR [2]; read-out: MOR Emax ± SEM (%)
  Emax: 8.32 ± 3.4%

## CC[C@@H]1CN2CCc3c([nH]c4cccc(OC)c34)[C@@H]2C[C@@H]1/C(=C\OC)C(=O)Nc1ccccc1 [SUSM-528, (E)-2-((2S,3S,12bS)-3-ethyl-8-methoxy-1,2,3,4,6,7,12,12b-octahydroindolo[2,3-a]quinolizin-2-yl)-3-methoxy-N-phenylacrylamide]
hMOR [1]; Table A1, data summary #1, read-out: MOR Ki ± SEM
  Ki: 7770 ± 3620 nM
hMOR [1]; Table A4, data summary #2, read-out: MOR Ki ± SEM
  Ki: 498 ± 118 nM
hKOR; [8]
  Ki: > 10000 nM
hKOR; [9]
  Ki: 6510 ± 4660 nM
hDOR; DOR Ki ± SEM (nM), Table A4, data summary #2
  Ki: > 10000 nM
α2A adrenergic receptor; Alpha2A Ki ± SEM (nM), Table A1, data summary #1
  Ki: 6580 ± 2320 nM
α2A adrenergic receptor; Alpha2A Ki ± SEM (nM), Table A4, data summary #2
  Ki: 6580 ± 2320 nM
hMOR [4]
  functional activity in cAMP assay: agonist, however its potency was less than DAMGO
hMOR [4]; listed as SUSM 528
  functional activity in cAMP assay: agonist, but less potent than DAMGO
